According to ChEMBL document CHEMBL5625254, “Design, synthesis and evaluation of ursodeoxycholic acid-cinnamic acid hybrids as potential anti-inflammatory agents by inhibiting Akt/NF-κB and MAPK signaling pathways” (Eur J Med Chem, 2023):

Tested on: RAW264.7
Assay: Cytotoxicity against mouse RAW264.7 cells assessed as cell viability at 20 uM incubated for 24 hrs by CCK8 assay
Format: toxicity, cell-based
Settings: raw264.7, 24 h

Row | Compound | Activity
1 | C/C(=C\c1ccccc1)C(=O)N1CCN(C(=O)CC[C@@H](C)[C@H]2CC[C@H]3[C@@H]4[C@@H](O)C[C@@H]5C[C@H](O)CC[C@]5(C)[C@H]4CC[C@]23C)CC1 | Non-Toxic
2 | C[C@H](CCC(=O)N1CCN(C(=O)/C=C/c2ccc(Cl)c(Cl)c2)CC1)[C@H]1CC[C@H]2[C@@H]3[C@@H](O)C[C@@H]4C[C@H](O)CC[C@]4(C)[C@H]3CC[C@]12C | Non-Toxic
3 | C[C@H](CCC(=O)N1CCN(C(=O)/C=C/c2ccc3c(c2)OCO3)CC1)[C@H]1CC[C@H]2[C@@H]3[C@@H](O)C[C@@H]4C[C@H](O)CC[C@]4(C)[C@H]3CC[C@]12C | Non-Toxic
4 | C[C@H](CCC(=O)N1CCN(C(=O)/C=C/c2ccc(F)c(F)c2)CC1)[C@H]1CC[C@H]2[C@@H]3[C@@H](O)C[C@@H]4C[C@H](O)CC[C@]4(C)[C@H]3CC[C@]12C | Non-Toxic
5 | COc1ccc(/C=C/C(=O)N2CCN(C(=O)CC[C@@H](C)[C@H]3CC[C@H]4[C@@H]5[C@@H](O)C[C@@H]6C[C@H](O)CC[C@]6(C)[C@H]5CC[C@]34C)CC2)cc1 | Non-Toxic
6 | C[C@H](CCC(=O)N1CCN(C(=O)/C=C/c2ccc(C(F)(F)F)cc2)CC1)[C@H]1CC[C@H]2[C@@H]3[C@@H](O)C[C@@H]4C[C@H](O)CC[C@]4(C)[C@H]3CC[C@]12C | Non-Toxic
7 | C[C@H](CCC(=O)N1CCN(C(=O)/C=C/c2ccccc2O)CC1)[C@H]1CC[C@H]2[C@@H]3[C@@H](O)C[C@@H]4C[C@H](O)CC[C@]4(C)[C@H]3CC[C@]12C | Non-Toxic
8 | COc1cc(/C=C\C(=O)N2CCN(C(=O)CC[C@@H](C)[C@H]3CC[C@H]4[C@@H]5[C@@H](O)C[C@@H]6C[C@H](O)CC[C@]6(C)[C@H]5CC[C@]34C)CC2)ccc1O | Non-Toxic
9 | C[C@H](CCC(=O)N1CCN(C(=O)/C=C/c2cc(F)cc(F)c2)CC1)[C@H]1CC[C@H]2[C@@H]3[C@@H](O)C[C@@H]4C[C@H](O)CC[C@]4(C)[C@H]3CC[C@]12C | Non-Toxic
10 | COc1cc(/C=C/C(=O)N2CCN(C(=O)CC[C@@H](C)[C@H]3CC[C@H]4[C@@H]5[C@@H](O)C[C@@H]6C[C@H](O)CC[C@]6(C)[C@H]5CC[C@]34C)CC2)ccc1O | Non-Toxic
11 | C[C@H](CCC(=O)N1CCN(C(=O)/C=C/c2ccc(OC(F)(F)F)cc2)CC1)[C@H]1CC[C@H]2[C@@H]3[C@@H](O)C[C@@H]4C[C@H](O)CC[C@]4(C)[C@H]3CC[C@]12C | Toxic
12 | C[C@H](CCC(=O)N1CCN(C(=O)/C=C/c2ccc(F)cc2F)CC1)[C@H]1CC[C@H]2[C@@H]3[C@@H](O)C[C@@H]4C[C@H](O)CC[C@]4(C)[C@H]3CC[C@]12C | Toxic
13 | C[C@H](CCC(=O)N1CCN(C(=O)CCc2ccccc2)CC1)[C@H]1CC[C@H]2[C@@H]3[C@@H](O)C[C@@H]4C[C@H](O)CC[C@]4(C)[C@H]3CC[C@]12C | Non-Toxic
14 | C[C@H](CCC(=O)N1CCN(C(=O)/C=C/c2ccc(O)cc2)CC1)[C@H]1CC[C@H]2[C@@H]3[C@@H](O)C[C@@H]4C[C@H](O)CC[C@]4(C)[C@H]3CC[C@]12C | Non-Toxic
15 | COc1cc(/C=C\C(=O)N2CCN(C(=O)CC[C@@H](C)[C@H]3CC[C@H]4[C@@H]5[C@@H](O)C[C@@H]6C[C@H](O)CC[C@]6(C)[C@H]5CC[C@]34C)CC2)cc(OC)c1OC | Non-Toxic
16 | COc1cc(/C=C/C(=O)N2CCN(C(=O)CC[C@@H](C)[C@H]3CC[C@H]4[C@@H]5[C@@H](O)C[C@@H]6C[C@H](O)CC[C@]6(C)[C@H]5CC[C@]34C)CC2)cc(OC)c1O | Toxic
